Laboratory results as given in PMC8230073, “The Role of Anthocyanins, Deoxyanthocyanins and Pyranoanthocyanins on the Modulation of Tyrosinase Activity: An In Vitro and In Silico Approach” (International Journal of Molecular Sciences, 2021).
Where two headings read alike, the source gives them in different places.

How the values were obtained:
mushroom tyrosinase [1] = target: T1, mushroom tyrosinase (Agaricus bisporus, UniProt C7FF04); assay: Kinetic analysis of tyrosinase inhibition; format: biochemical
T1 construct: purchased Sigma Aldrich T3824-250 KU
Source text: GraphPad Prism 8.2.1 was used to fit the experimental data to these four models, all of them compared with each other. Akaike’s Information Criteria (AICc) approach was used to compare the fit of competitive, uncompetitive, and noncompetitive models, while extra sum-of-squares F test was used to compare the mixed model with the remaining three models, as they are considered to be special cases of the mixed model general equation.
Additionally, the mixed model fitting includes an extra parameter, the alpha (α) value, which represents a useful quantitative indicator of the mechanism of inhibition.
Initial velocity of the enzymatic reaction, V0, was determined from the slope of the curve at the initial phase of the reaction, in the presence of increasing concentrations of each compound (25–100 μM) and L-dopa (0.10–1.0 mM) and then plotted as a function of the corresponding substrate concentration, [S]. GraphPad Prism 8.2.1 program was used to fit the obtained data into the Michaelis–Menten model and to determine the kinetic parameters Vmax and KM (maximal reaction velocity and Michaelis–Menten constant, respectively).

mushroom tyrosinase [2] = target: T1, mushroom tyrosinase; assay: Mushroom tyrosinase inhibition assay (L-DOPA oxidation to dopachrome); format: biochemical
Protocol: Both were dissolved in 20 mM phosphate buffer solution, pH 6.8. First, 20 µL from a freshly prepared stock solution of mushroom tyrosinase (270 U/mL) and 75 µL of test compounds stock solutions (20 mM PBS, pH 6.8) were mixed and pre-incubated at 37 °C for 15 min. Then, 30 µL of 6 mM L-DOPA was added to the reaction mixture, followed by an incubation of 20 min at 37 °C. During this reaction, L-DOPA is converted to dopachrome (a precursor of melanin), visually detected by the change of color from colorless to orange/brown, resulting in an absorbance increase, recorded spectrophotometrically at 475 nm on a Flex Station 3 Multi-Mode Microplate Reader (Molecular Devices). The inhibition rate was calculated as follows:(1) % Tyrosinase inhibition=(1−A−B/C−D)×100 where A and B represent the final and initial optical densities of the reaction in the presence of the tested compounds, while C and D represent the final and initial optical densities of the reaction in their absence, respectively. […] Experiments were carried out in triplicate and repeated at least 3 times.

[3] = pH 7.4, cited from earlier work; for fraction in quinoidal base form: 7-A^− and 8-A, ref [20],[22]
[4] = 50 µM compound, substrate L-DOPA, pH 6.8, 37 °C, mean ± SEM, read-out: % mTYR Inhibition at 50 µM

T1 sequence (C7FF04 1-392): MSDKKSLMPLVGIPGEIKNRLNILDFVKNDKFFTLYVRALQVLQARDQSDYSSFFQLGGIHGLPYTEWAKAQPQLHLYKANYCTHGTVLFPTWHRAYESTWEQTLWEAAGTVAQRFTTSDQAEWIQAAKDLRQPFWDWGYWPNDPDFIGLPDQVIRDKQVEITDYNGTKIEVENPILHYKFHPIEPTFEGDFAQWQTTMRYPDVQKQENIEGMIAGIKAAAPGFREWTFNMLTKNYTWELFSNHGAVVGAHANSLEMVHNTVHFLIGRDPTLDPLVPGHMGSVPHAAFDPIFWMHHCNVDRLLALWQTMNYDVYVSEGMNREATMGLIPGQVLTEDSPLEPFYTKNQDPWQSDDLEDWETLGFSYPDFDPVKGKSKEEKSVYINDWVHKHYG

Oc1cc(O)c2ccc(-c3ccc(O)c(O)c3)[o+]c2c1 [Compound 1, luteolinidin]
Ki (mushroom tyrosinase [1]): 15.1 ± 1.18 µM | Vmax (mushroom tyrosinase [1]; L-DOPA, inhibitor 25 μM): 45.8 µM/min | Vmax (mushroom tyrosinase [1]; L-DOPA, inhibitor 50 μM): 45.8 µM/min | Vmax (mushroom tyrosinase [1]; L-DOPA, inhibitor 75 μM): 45.8 µM/min | Vmax (mushroom tyrosinase [1]; L-DOPA, inhibitor 100 μM): 45.8 µM/min | α (mushroom tyrosinase [1]; alpha value from fitting of mixed model equation): 21.00 | Inhibition Type (mushroom tyrosinase [1]; diphenolase activity, L-DOPA, model comparison in GraphPad Prism): Competitive | IC50 (mushroom tyrosinase [2]): 39.2 ± 2.71 µM | inhibition at 50 µM (mushroom tyrosinase [2]; pH 6.8, read-out: % mTYR Inhibition at 50 µM): 58.5 ± 2.08%

O=C(O)c1cc2c(O[C@@H]3O[C@H](CO)[C@@H](O)[C@H](O)[C@H]3O)c(-c3ccc(O)c(O)c3)oc3cc(=O)cc(o1)c32 [Compound 5, carboxypyranocyanidin-3-O-glucoside]
fraction under the form A^2− ([3]; ref [20],[21]): ~100% | inhibition at 50 µM (mushroom tyrosinase [2]; [4]): 22.1 ± 0.962% | inhibition at 200 µM (mushroom tyrosinase [2]; 200 μM compound, L-DOPA oxidation (Figure 3), read-out: inhibition rate at 200 μM): ~40%

Cc1cc2c(O[C@@H]3O[C@H](CO)[C@@H](O)[C@H](O)[C@H]3O)c(-c3ccc(O)c(O)c3)oc3cc(=O)cc(o1)c32 [Compound 7, methylpyranocyanidin-3-O-glucoside]
fraction in quinoidal base form [3]: 80% | inhibition at 50 µM (mushroom tyrosinase [2]; [4]): 16.2 ± 1.14%

COc1cc(-c2oc3cc(=O)cc4oc(C)cc(c2O[C@@H]2O[C@H](CO)[C@@H](O)[C@H](O)[C@H]2O)c43)cc(OC)c1O [Compound 8, methylpyranomalvidin-3-O-glucoside]
fraction in quinoidal base form [3]: 80% | inhibition at 50 µM (mushroom tyrosinase [2]; [4]): 9.74 ± 3.36%
